Data taken from ChEMBL document CHEMBL1201862, “PubChem BioAssay data set” (2004).
Where “and” joins values, the source holds several entries; their conditions need not be identical. Equal values may be shown once.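 Method: 48-hour compound exposure of cells in 96-well plates, five concentrations, linear interpolation of endpoints. Here, GI50 denotes the concentration required for 50% inhibition of growth.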 Calls of active or inactive are those of the source. No stated cut-off is given here; in the data, active = GI50 up to about 1.1 µM and inactive = higher.

Assays:
Experiment in all cases: DTP human tumour cell line panel, 48 h
OVCAR-8 = tested on: OVCAR-8
HCT-116 = tested on: HCT-116
UACC-257 = tested on: UACC-257
SK-MEL-28 = tested on: SK-MEL-28
U-251 = tested on: U-251
EKVX = tested on: EKVX
MDA-MB-231 = tested on: MDA-MB-231
Malme-3M = tested on: Malme-3M
SR = tested on: SR
A549 = tested on: A549
CCRF-CEM = tested on: CCRF-CEM
COLO 205 = tested on: COLO 205
OVCAR-4 = tested on: OVCAR-4
SK-OV-3 = tested on: SK-OV-3
M14 = tested on: M14
A498 = tested on: A498
MDA-MB-435 = tested on: MDA-MB-435
ACHN = tested on: ACHN
HOP-92 = tested on: HOP-92

Q: For `Cc1cc(-c2cc(C)c(O)c(C(C)(C)C)c2)cc(C(C)(C)C)c1O`, which GI50 (OVCAR-8) is on record?
A: 15.4 µM (inactive) and 13.4 µM (inactive)

Q: What about the GI50 (HCT-116) of the same compound?
A: 6.21 µM (inactive) and 10.9 µM (inactive)

Q: What about the GI50 (UACC-257) of the same compound?
A: 11.8 µM (inactive)

Q: What about the GI50 (SK-MEL-28) of the same compound?
A: 16.7 µM (inactive) and 12 µM (inactive)

Q: And the GI50 (U-251)?
A: 13.6 µM (inactive) and 10.6 µM (inactive)

Q: And the GI50 (EKVX)?
A: 14.8 µM (inactive) and 10.8 µM (inactive)

Q: What about the GI50 (MDA-MB-231) of the same compound?
A: 9.55 µM (inactive) and 12.9 µM (inactive)

Q: What about the GI50 (Malme-3M) of the same compound?
A: 14.6 µM (inactive) and 21.4 µM (inactive)

Q: And the GI50 (SR)?
A: 4.09 µM (inactive)

Q: What about the GI50 (A549) of the same compound?
A: 9.27 µM (inactive) and 9.59 µM (inactive)

Q: And the GI50 (CCRF-CEM)?
A: 5.69 µM (inactive) and 5.58 µM (inactive)

Q: And the GI50 (COLO 205)?
A: 11.1 µM (inactive) and 13.6 µM (inactive)

Q: What about the GI50 (OVCAR-4) of the same compound?
A: 12.4 µM (inactive) and 11.6 µM (inactive)

Q: What about the GI50 (SK-OV-3) of the same compound?
A: 16.7 µM (inactive) and 14.2 µM (inactive)

Q: And the GI50 (M14)?
A: 10.6 µM (inactive) and 12.8 µM (inactive)

Q: And the GI50 (A498)?
A: 9.4 µM (inactive) and 17.1 µM (inactive)

Q: What about the GI50 (MDA-MB-435) of the same compound?
A: 11.5 µM (inactive) and 14.8 µM (inactive)

Q: What about the GI50 (ACHN) of the same compound?
A: 10.6 µM (inactive) and 15.7 µM (inactive)

Q: `COC1=C(OC)C(=O)C(C/C=C/c2c(Cl)nc3sccn23)=C(C)C1=O` was tested. Which GI50 (OVCAR-8) did it give?
A: 10.4 µM (inactive)

Q: What about the GI50 (HCT-116) of the same compound?
A: 12.8 µM (inactive)

Q: And the GI50 (UACC-257)?
A: 0.536 µM (active)

Q: And the GI50 (SK-MEL-28)?
A: 17.9 µM (inactive)

Q: What about the GI50 (U-251) of the same compound?
A: 5.87 µM (inactive)

Q: What about the GI50 (EKVX) of the same compound?
A: 11.2 µM (inactive)

Q: And the GI50 (MDA-MB-231)?
A: 7.67 µM (inactive)

Q: And the GI50 (Malme-3M)?
A: 3.75 µM (inactive)

Q: And the GI50 (SR)?
A: 15 µM (inactive)

Q: And the GI50 (A549)?
A: 11.2 µM (inactive)

Q: And the GI50 (CCRF-CEM)?
A: 1.85 µM (inactive)

Q: What about the GI50 (COLO 205) of the same compound?
A: 16.9 µM (inactive)

Q: And the GI50 (OVCAR-4)?
A: 0.398 µM (active)

Q: What about the GI50 (SK-OV-3) of the same compound?
A: 16.7 µM (inactive)

Q: And the GI50 (M14)?
A: 16.2 µM (inactive)

Q: And the GI50 (A498)?
A: 22.2 µM (inactive)

Q: And the GI50 (MDA-MB-435)?
A: 9.16 µM (inactive)

Q: And the GI50 (ACHN)?
A: 15.5 µM (inactive)

Q: For `CSC(SC)=C(C#N)C(=O)Nc1ccc(C)cc1`, which GI50 (HCT-116) is on record?
A: 49.5 µM (inactive)

Q: And the GI50 (UACC-257)?
A: > 100 µM (inactive)

Q: What about the GI50 (SK-MEL-28) of the same compound?
A: > 100 µM (inactive)

Q: What about the GI50 (U-251) of the same compound?
A: > 100 µM (inactive)

Q: What about the GI50 (EKVX) of the same compound?
A: > 100 µM (inactive)

Q: What about the GI50 (MDA-MB-231) of the same compound?
A: > 100 µM (inactive)

Q: What about the GI50 (HOP-92) of the same compound?
A: 15.5 µM (inactive)

Q: What about the GI50 (Malme-3M) of the same compound?
A: > 100 µM (inactive)

Q: What about the GI50 (SR) of the same compound?
A: 63 µM (inactive)

Q: And the GI50 (A549)?
A: > 100 µM (inactive)

Q: What about the GI50 (CCRF-CEM) of the same compound?
A: 34.6 µM (inactive)

Q: And the GI50 (COLO 205)?
A: > 100 µM (inactive)

Q: What about the GI50 (OVCAR-4) of the same compound?
A: > 100 µM (inactive)

Q: And the GI50 (SK-OV-3)?
A: > 100 µM (inactive)

Q: And the GI50 (M14)?
A: > 100 µM (inactive)

Q: What about the GI50 (MDA-MB-435) of the same compound?
A: > 100 µM (inactive)

Q: What about the GI50 (ACHN) of the same compound?
A: > 100 µM (inactive)

Q: Which GI50 (OVCAR-8) does the source give for `Oc1ccc(Br)cc1/C=N/c1c(NC2CCCCC2)oc2ccc(Br)cc12` here?
A: 37.4 µM (inactive)

Q: And the GI50 (HCT-116)?
A: 13.7 µM (inactive)

Q: And the GI50 (UACC-257)?
A: 37.8 µM (inactive)

Q: What about the GI50 (SK-MEL-28) of the same compound?
A: 41.5 µM (inactive)

Q: What about the GI50 (U-251) of the same compound?
A: 34.9 µM (inactive)

Q: What about the GI50 (EKVX) of the same compound?
A: 45.1 µM (inactive)

Q: What about the GI50 (MDA-MB-231) of the same compound?
A: 61.5 µM (inactive)

Q: And the GI50 (Malme-3M)?
A: 31.7 µM (inactive)

Q: What about the GI50 (SR) of the same compound?
A: 45.9 µM (inactive)

Q: And the GI50 (A549)?
A: 54 µM (inactive)

Q: What about the GI50 (CCRF-CEM) of the same compound?
A: 4.1 µM (inactive)

Q: And the GI50 (COLO 205)?
A: > 10 µM (inactive)

Q: And the GI50 (OVCAR-4)?
A: 38 µM (inactive)

Q: And the GI50 (SK-OV-3)?
A: 87.5 µM (inactive)

Q: And the GI50 (A498)?
A: 35.3 µM (inactive)

Q: And the GI50 (MDA-MB-435)?
A: 35.5 µM (inactive)

Q: And the GI50 (ACHN)?
A: 35.8 µM (inactive)

Q: With `Cc1nc2c(sc3nc4c(cc32)CCC4)c(=O)o1` as the compound, how does the GI50 (OVCAR-8) read?
A: 36.1 µM (inactive)

Q: What about the GI50 (HCT-116) of the same compound?
A: 32.8 µM (inactive)

Q: What about the GI50 (UACC-257) of the same compound?
A: 89.1 µM (inactive)

Q: What about the GI50 (SK-MEL-28) of the same compound?
A: 46.7 µM (inactive)

Q: What about the GI50 (U-251) of the same compound?
A: > 83.2 µM (inactive)

Q: What about the GI50 (EKVX) of the same compound?
A: > 100 µM (inactive)

Q: And the GI50 (MDA-MB-231)?
A: > 92.5 µM (inactive)

Q: What about the GI50 (HOP-92) of the same compound?
A: > 50.1 µM (inactive)

Q: What about the GI50 (SR) of the same compound?
A: 39.3 µM (inactive)

Q: What about the GI50 (A549) of the same compound?
A: > 50.5 µM (inactive)

Q: And the GI50 (CCRF-CEM)?
A: 40.8 µM (inactive)

Q: What about the GI50 (COLO 205) of the same compound?
A: 54.6 µM (inactive)

Q: And the GI50 (OVCAR-4)?
A: 32.4 µM (inactive)

Q: What about the GI50 (SK-OV-3) of the same compound?
A: > 100 µM (inactive)

Q: What about the GI50 (M14) of the same compound?
A: 64.3 µM (inactive)

Q: And the GI50 (A498)?
A: > 100 µM (inactive)

Q: What about the GI50 (MDA-MB-435) of the same compound?
A: 36.6 µM (inactive)

Q: What about the GI50 (ACHN) of the same compound?
A: > 66.7 µM (inactive)

Q: Which GI50 (OVCAR-8) does the source give for `CC(=O)/C(=C\n1c(=S)[nH]c2ccc([N+](=O)[O-])cc21)C(=O)Nc1ccccc1C` here?
A: > 100 µM (inactive)

Q: And the GI50 (HCT-116)?
A: > 100 µM (inactive)

Q: What about the GI50 (UACC-257) of the same compound?
A: > 100 µM (inactive)

Q: What about the GI50 (SK-MEL-28) of the same compound?
A: > 100 µM (inactive)

Q: And the GI50 (U-251)?
A: > 100 µM (inactive)

Q: What about the GI50 (EKVX) of the same compound?
A: > 100 µM (inactive)

Q: What about the GI50 (MDA-MB-231) of the same compound?
A: > 100 µM (inactive)

Q: What about the GI50 (Malme-3M) of the same compound?
A: > 100 µM (inactive)

Q: What about the GI50 (SR) of the same compound?
A: 88.5 µM (inactive)

Q: And the GI50 (A549)?
A: > 100 µM (inactive)

Q: And the GI50 (CCRF-CEM)?
A: > 100 µM (inactive)

Q: What about the GI50 (COLO 205) of the same compound?
A: > 100 µM (inactive)

Q: And the GI50 (OVCAR-4)?
A: > 100 µM (inactive)

Q: What about the GI50 (SK-OV-3) of the same compound?
A: > 100 µM (inactive)

Q: What about the GI50 (M14) of the same compound?
A: > 100 µM (inactive)

Q: What about the GI50 (A498) of the same compound?
A: 96.8 µM (inactive)

Q: What about the GI50 (MDA-MB-435) of the same compound?
A: > 100 µM (inactive)

Q: What about the GI50 (ACHN) of the same compound?
A: > 100 µM (inactive)

Q: What does the source list for `CC(C)Oc1ccc(CNC2=NCCO2)c2ccccc12`?
A: GI50 (OVCAR-8): 15.2 µM (inactive); GI50 (HCT-116): 12.6 µM (inactive); GI50 (UACC-257): 5.25 µM (inactive); GI50 (SK-MEL-28): 14.5 µM (inactive); GI50 (U-251): 13.6 µM (inactive); GI50 (EKVX): 15.1 µM (inactive); GI50 (MDA-MB-231): 14.5 µM (inactive); GI50 (Malme-3M): 14.1 µM (inactive); GI50 (SR): 7.85 µM (inactive); GI50 (A549): 15.4 µM (inactive); GI50 (CCRF-CEM): 13.3 µM (inactive); GI50 (COLO 205): 16.4 µM (inactive); GI50 (OVCAR-4): 13.9 µM (inactive); GI50 (SK-OV-3): 16.3 µM (inactive); GI50 (M14): 11.4 µM (inactive); GI50 (A498): 10.2 µM (inactive); GI50 (MDA-MB-435): 10.9 µM (inactive); GI50 (ACHN): 14 µM (inactive)
